Literature values, collected in patent US11096902B1, “Transdermal film formulations and methods of use” (King Abdulaziz University, priority 2021, dated 2021).

Conditions: oral, with food

SMILES: CC(C)c1c(C(=O)Nc2ccccc2)c(-c2ccccc2)c(-c2ccc(F)cc2)n1CC[C@@H](O)C[C@@H](O)CC(=O)[O-].CC(C)c1c(C(=O)Nc2ccccc2)c(-c2ccccc2)c(-c2ccc(F)cc2)n1CC[C@@H](O)C[C@@H](O)CC(=O)[O-].[Ca+2] [ATC, Atorvastatin calcium]
- reduction of systemic availability by concomitant intake of food: 25%
